In PubChem BioAssay (NCI) one finds TGI data, which are given here for seven compounds.

Structures are written as SMILES.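 Cultured in 96-well plates, cells were exposed to test compound for 48 hours across five concentrations. Definition used: TGI = concentration required for complete inhibition of growth.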

Test systems include EKVX NSCLC; SNB-75 CNS; LOX IMVI melanoma; HOP-62 NSCLC; SF-268 CNS; TK-10 renal; COLO 205 colon; ACHN renal; MDA-N; 786-0 renal; SK-OV-3 ovarian; PC-3 prostate; NCI-H226 lung; MCF7 breast; CCRF-CEM leukemia; SF-539 CNS; SK-MEL-28 melanoma; RPMI-8226 leukemia; SK-MEL-2 melanoma; HL-60(TB) leukemia.
Holding throughout (assay): NCI-60 cell line screen, 48 h

Regarding `CN(/N=C/C=N/N(C)C1=NCCN1)C1=NCCN1`, the TGI in the experiment with EKVX NSCLC, in the experiment on SNB-75 CNS, in the experiment with LOX IMVI melanoma, in the experiment with HOP-62 NSCLC, with SF-268 CNS and in the experiment on TK-10 renal was above 100 µM in each case. Moreover, the TGI in the experiment with COLO 205 colon, in the experiment with ACHN renal, in the experiment with MDA-N, in the experiment with 786-0 renal, in the experiment on SK-OV-3 ovarian and in the experiment with PC-3 prostate was above 100 µM in each case. In addition, the TGI with NCI-H226 lung, with MCF7 breast, in the experiment with CCRF-CEM leukemia, in the experiment with SF-539 CNS and in the experiment with SK-MEL-28 melanoma was above 100 µM in each case.

For the compound `O=C1N[C@H](C(=O)O)[C@@H](c2ccc(OCc3ccccc3)cc2)O1`, the TGI was 89.1 µM in the experiment on EKVX NSCLC; 28 µM in the experiment on SNB-75 CNS; above 100 µM with RPMI-8226 leukemia; 33.2 µM with HOP-62 NSCLC; 87.9 µM with SF-268 CNS; 84.4 µM in the experiment with TK-10 renal. Further, the TGI is above 100 µM with COLO 205 colon; above 100 µM with ACHN renal; above 100 µM with MDA-N; 65.6 µM with 786-0 renal; above 100 µM with SK-OV-3 ovarian; above 100 µM with PC-3 prostate. For the same compound, the TGI is 55.7 µM with NCI-H226 lung; above 100 µM in the experiment on MCF7 breast; above 100 µM with CCRF-CEM leukemia; above 100 µM in the experiment on SK-MEL-2 melanoma; above 100 µM in the experiment on SK-MEL-28 melanoma.

For the compound `O=C(OCC(OC(=O)c1ccccc1)C1CC(C2(O)CCCCC2)C(=O)O1)c1ccccc1` (stereo not drawn), the TGI with EKVX NSCLC, in the experiment with SNB-75 CNS, in the experiment with LOX IMVI melanoma, with RPMI-8226 leukemia, with HOP-62 NSCLC and with SF-268 CNS was above 25 µM throughout. Further, the TGI with TK-10 renal, in the experiment with COLO 205 colon, with ACHN renal, with MDA-N, in the experiment on 786-0 renal and with SK-OV-3 ovarian was above 25 µM throughout. Moreover, the TGI with PC-3 prostate, with NCI-H226 lung, in the experiment with MCF7 breast, with CCRF-CEM leukemia, in the experiment on SF-539 CNS and in the experiment with SK-MEL-2 melanoma was above 25 µM each time. Moreover, in the experiment on SK-MEL-28 melanoma, the TGI was above 25 µM.

As to `OCC1OC(n2cnc3c(Cl)nc(Nc4ccc(Cl)c(Cl)c4)nc32)CC1O` (stereo not drawn), the TGI is 28.2 µM in the experiment on EKVX NSCLC; 42.2 µM in the experiment on SNB-75 CNS; 16.4 µM with HL-60(TB) leukemia; 16 µM in the experiment with LOX IMVI melanoma; 29.4 µM with RPMI-8226 leukemia; 23 µM in the experiment on HOP-62 NSCLC. The TGI in the experiment on SF-268 CNS stood at 28.6 µM; with TK-10 renal, 35.6 µM; in the experiment with COLO 205 colon, 20.5 µM; in the experiment on ACHN renal, 19.9 µM; in the experiment on 786-0 renal, 19.4 µM; in the experiment on SK-OV-3 ovarian, 33.4 µM. In addition, the TGI worked out at 37.1 µM with PC-3 prostate; 20.2 µM in the experiment with NCI-H226 lung; 27.5 µM in the experiment on MCF7 breast; 18.1 µM with CCRF-CEM leukemia; 19.2 µM in the experiment with SK-MEL-2 melanoma.

Regarding `CCOc1cc2c(cc1O)C(=O)C[C@@H]1[C@@H]2CC[C@]2(C)[C@@H](O)CC[C@@H]12`, the TGI in the experiment with EKVX NSCLC was above 100 µM; in the experiment on LOX IMVI melanoma, above 100 µM; in the experiment on RPMI-8226 leukemia it was above 9.48 µM; with HOP-62 NSCLC, above 100 µM; with SF-268 CNS, above 95.4 µM; in the experiment on TK-10 renal, above 100 µM. The TGI in the experiment with COLO 205 colon is 47.4 µM; with ACHN renal, above 100 µM; in the experiment with MDA-N, 0.106 µM; in the experiment on 786-0 renal, above 53.8 µM; with SK-OV-3 ovarian, above 73.6 µM; in the experiment with PC-3 prostate, above 82.5 µM. For the same compound, the TGI in the experiment on NCI-H226 lung is 17 µM; in the experiment with MCF7 breast it was above 100 µM; with CCRF-CEM leukemia it was above 100 µM; with SF-539 CNS it was 0.487 µM; with SK-MEL-2 melanoma, above 58.1 µM; with SK-MEL-28 melanoma, above 73.5 µM.

For the compound `O=c1c2cc([N+](=O)[O-])ccc2n2n1CCCCC2`, the TGI in the experiment with EKVX NSCLC, in the experiment on SNB-75 CNS, in the experiment with HL-60(TB) leukemia, with LOX IMVI melanoma, in the experiment on RPMI-8226 leukemia and with HOP-62 NSCLC was above 100 µM in each case. The TGI in the experiment with SF-268 CNS, in the experiment with TK-10 renal, with COLO 205 colon, in the experiment on ACHN renal, in the experiment on MDA-N and in the experiment with 786-0 renal was above 100 µM in each case. Further, the TGI with SK-OV-3 ovarian, in the experiment with PC-3 prostate, with NCI-H226 lung, in the experiment on CCRF-CEM leukemia, in the experiment on SF-539 CNS and in the experiment with SK-MEL-28 melanoma was above 100 µM throughout.

With `COc1ccc(CNc2nc3cc(C(F)(F)F)ccc3nc2C(=O)O)cc1`, the TGI in the experiment on EKVX NSCLC is 78.6 µM; with SNB-75 CNS it was above 100 µM; in the experiment on LOX IMVI melanoma, 44.3 µM; with RPMI-8226 leukemia, above 100 µM; in the experiment with HOP-62 NSCLC, 55.5 µM; in the experiment on COLO 205 colon, 39.7 µM. Besides, the TGI in the experiment on ACHN renal was above 100 µM; in the experiment on MDA-N it was 74.6 µM; in the experiment with 786-0 renal, 63.2 µM; in the experiment with SK-OV-3 ovarian, above 100 µM; with PC-3 prostate, above 100 µM; with NCI-H226 lung it was above 100 µM. Further, the TGI with MCF7 breast is 64.9 µM; in the experiment with CCRF-CEM leukemia, above 100 µM; in the experiment on SF-539 CNS, 49.2 µM; with SK-MEL-2 melanoma, 62.2 µM; in the experiment on SK-MEL-28 melanoma it was above 100 µM.
